Results reported in patent publication US8026236B2, “6-phenyl-1H-imidazo[4,5-c]pyridine-4-carbonitrile derivatives” (N.V. Organon, priority 2009, dated 2011).

Biological target: recombinant human Cathepsin S (Homo sapiens, UniProt P25774)
Assay: Cathepsin S assay procedure (inhibition of recombinant human Cathepsin S, fluorogenic substrate Z-Val-Val-Arg-AMC)
Format: biochemical
Details: pH5.5, 20 minutes, read-out: pIC50 (negative logarithm of the IC50 concentration) for inhibition of human cathepsin S (converted)
Experimental: To a 384 well microtitre plate is added 10 μl of a 1000 solution of test compound in assay buffer (100 mM sodium acetate pH5.5, 5 mM EDTA, 5 mM dithiothreitol) with 10% dimethylsulfoxide (DMSO), plus 200 of 2500 solution of the substrate Z-Val-Val-Arg-AMC (7-amido-coumarine derivative of the tripeptide N-benzyloxy-carbonyl-Val-Val-Arg-OH) in assay buffer and 45 μl of assay buffer. 25 μl of a 2 mg/l solution of activated recombinant human cathepsin S, in assay buffer, is then added to the well, yielding a final inhibitor concentration of 10 μM. Enzyme activity is determined by measuring the fluorescence of the liberated aminomethylcoumarin at […] using 390 nm excitation, at 20 minutes. Percentage enzyme activity is calculated by comparison of this activity to that of a solution containing no inhibitor. Compounds are subsequently subjected to a dose response curve analysis in order to determine IC50 values for active compounds (where IC50 is the concentration of test compound causing 50% inhibition of the enzymatic activity). Compounds of the invention typically have a pIC50 (negative logarithm of the IC50 concentration) for inhibition of human cathepsin S of more than 6. Most compounds of the invention have a pIC50 of more than 7, such as exemplified by the compounds of examples 1a, 1b, 2a, 7d, 12a, 14a, 14b, 14c, 14d, 14e, 14f, 14g, 14h, 14i, 17, 18.

Chain of recombinant human Cathepsin S (P25774 115-331): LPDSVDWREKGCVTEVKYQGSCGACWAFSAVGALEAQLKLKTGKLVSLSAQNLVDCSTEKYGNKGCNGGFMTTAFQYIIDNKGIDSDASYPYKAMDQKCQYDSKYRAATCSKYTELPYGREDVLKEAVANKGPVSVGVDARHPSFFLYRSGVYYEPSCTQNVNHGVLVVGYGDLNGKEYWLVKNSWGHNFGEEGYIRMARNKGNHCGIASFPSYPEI

CC(=O)Nc1cccc(COc2ccc(-c3cc4c(ncn4C)c(C#N)n3)cc2C(F)(F)F)c1 [Example 17]
IC50: < 100 nM
